From ChEMBL document CHEMBL1671852, “In vitro activities of linezolid against clinical isolates of Mycobacterium tuberculosis complex isolated in Taiwan over 10 years” (2008)
Converted amounts (≈) assume the structure as drawn.

System: Mycobacterium tuberculosis
Assay: Antibacterial activity against Mycobacterium tuberculosis H37Rv by agar proportion method
Type: functional

Question: Which MIC does the source give for `CC(=O)NC[C@H]1CN(c2ccc(N3CCOCC3)c(F)c2)C(=O)O1` [LINEZOLID] here?
Answer: 0.5 µg/mL (≈ 1.48 µM)
